“Also recorded” adds a separate entry of the source.
Assays:
NSCLC [1] = conditions: cited from earlier work
advanced NSCLC = test: Open-label Phase II predictive marker study of Tarceva monotherapy, response by RECIST; assay type: in vivo, human; conditions: 102 analysed patients, oral 150 mg/day
Experimental: Clinical benefit was defined as either having an objective response, or disease stabilization for ≧12 weeks.
Based on the experience from the BR.21 study, benefiting population was defined as either having objective response, or disease stabilization for 12 weeks. Clinical and microarray datasets were analyzed according to a pre-defined statistical plan.
Overview of Study Design and Dosing Regimen This was an open-label, predictive marker identification Phase II study. The study was conducted in approximately 26 sites in about 12 countries. 264 patients with advanced NSCLC following failure of at least one prior chemotherapy regimen were enrolled over a 12 month period. […] Dose reductions were permitted based on tolerability to drug therapy. Clinical and laboratory parameters were assessed to evaluate disease control and toxicity. Treatment continued until disease progression, unacceptable toxicity or death. The study design is depicted in FIG. 1.
The RECIST (Uni-dimensional Tumour Measurement) criteria were used to evaluate response. These criteria can be found under the following link: http://www.eortc.be/recist/
Note that: To be assigned a status of CR or PR, changes in tumour measurements must be confirmed by repeated assessments at least 4 weeks apart at any time during the treatment period.
In the case of SD, follow-up measurements must have met the SD criteria at least once after study entry at a minimum interval of 6 weeks.
In the case of maintained SD, follow-up measurements must have met the SD criteria at least once after study entry with maintenance duration of at least 12 weeks.
Based on these parameters, data from 20 arrays were excluded from analysis. Thus data from a total of 102 arrays representing 102 patients was included in the analysis.

[2] = patients with cancer, 150 mg/day dose; 500 ng/ml is the average plasma concentration targeted for clinical efficacy; cited from earlier work
NSCLC [3] = conditions: NSCLC patients for whom standard therapy for advanced disease has failed; single agent versus placebo; 150 mg/day; cited from earlier work
epithelial tumours = conditions: cited from earlier work
NSCLC [4] = conditions: second line therapy of NSCLC; cited from earlier work
[5] = advanced NSCLC after failure of at least one chemotherapy, RECIST
[6] = clinical benefit = objective response or disease stabilization for ≧12 weeks

Which “Survival, second line” value (NSCLC [1]; NSCLC after failure of cisplatin-based first-line regimens, all ages, ECOG performance status 0, 1 or 2, versus best supportive care) does the source give for CC(=O)O[C@@]12CO[C@@H]1C[C@H](O)[C@@]1(C)C(=O)[C@H](O)C3=C(C)[C@@H](OC(=O)[C@H](O)[C@@H](NC(=O)OC(C)(C)C)c4ccccc4)C[C@@](O)([C@@H](OC(=O)c4ccccc4)[C@H]21)C3(C)C [docetaxel] here?
Its value is “improved survival”.

What about the “Survival, third-line treatment or beyond” value (NSCLC [1]; patients receiving docetaxel as third-line treatment or beyond) of the same compound?
Its value is “no prolongation of survival”.

Which “Best Response PD” value (advanced NSCLC; [5]) does the source give for C#Cc1cccc(Nc2ncnc3cc(OCCOC)c(OCCOC)cc23)c1 [Tarceva, erlotinib] here?
Its value is 49 (48.0%) n (%).

What about the “Best Response PR” value (advanced NSCLC; [5]) of the same compound?
The value was 6 (5.9%) n (%).

And the “Best Response SD” value (advanced NSCLC; [5])?
The value was 31 (30.4%) n (%).

And the “Clinical Benefit NO” value (advanced NSCLC; [6])?
The value was 81 (79.4%) n (%).

And the “Clinical Benefit YES” value (advanced NSCLC; [6])?
Its value is 21 (20.6%) n (%).

What about the “Drug levels in plasma” value [2] of the same compound?
Its value is over 500 ng/mL.

What about the Survival (NSCLC [3]) of the same compound?
Its Survival is “significantly prolongs and improves the survival; also recorded: survival benefit”.

What about the Safety and tolerability (epithelial tumours; early clinical data, doses that provide the targeted effective concentration) of the same compound?
Its Safety and tolerability is “safe and generally well tolerated”.

What about the “Clinical activity (remissions)” value (epithelial tumours; previously treated patients with head and neck cancer and NSCLC) of the same compound?
Its value is “capable of inducing durable partial remissions”.

Which results are given for Nc1nc2[nH]cc(CCc3ccc(C(=O)N[C@@H](CCC(=O)O)C(=O)O)cc3)c2c(=O)[nH]1 [pemetrexed]?
Efficacy compared with docetaxel (NSCLC [4]): clinically equivalent efficacy; Side effects compared with docetaxel (NSCLC [4]): significantly fewer side effects
